# According to PubChem BioAssay (NCI):
#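 A five-concentration, 48-hour dose response in 96-well plates underlies each endpoint, interpolated linearly between surrounding concentrations. At the TGI there is no net growth.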
# What was measured:
# Assay in all cases: NCI-60 cell line screen, 48 h
# BT-549 breast = test system: BT-549 breast
# NCI-H23 lung = test system: NCI-H23 lung
# SR leukemia = test system: SR leukemia
# CAKI-1 renal = test system: CAKI-1 renal
# OVCAR-8 ovarian = test system: OVCAR-8 ovarian
# T-47D breast = test system: T-47D breast
# A549 NSCLC = test system: A549 NSCLC
# HCC-2998 colon = test system: HCC-2998 colon
# UACC-257 melanoma = test system: UACC-257 melanoma
# RPMI-8226 leukemia = test system: RPMI-8226 leukemia
# MCF7 breast = test system: MCF7 breast
# TK-10 renal = test system: TK-10 renal
# HOP-62 NSCLC = test system: HOP-62 NSCLC
# CCRF-CEM leukemia = test system: CCRF-CEM leukemia
# MDA-MB-435 = test system: MDA-MB-435
# OVCAR-4 ovarian = test system: OVCAR-4 ovarian
# MOLT-4 leukemia = test system: MOLT-4 leukemia
# ACHN renal = test system: ACHN renal
# SK-OV-3 ovarian = test system: SK-OV-3 ovarian
# PC-3 prostate = test system: PC-3 prostate
# MDA-MB-231 breast = test system: MDA-MB-231 breast
# SN12C renal = test system: SN12C renal
# M14 melanoma = test system: M14 melanoma
# KM12 colon = test system: KM12 colon
# SF-268 CNS = test system: SF-268 CNS
# SW-620 colon = test system: SW-620 colon
# SNB-75 CNS = test system: SNB-75 CNS
# EKVX NSCLC = test system: EKVX NSCLC
# SK-MEL-28 melanoma = test system: SK-MEL-28 melanoma
# K-562 leukemia = test system: K-562 leukemia
# HL-60(TB) leukemia = test system: HL-60(TB) leukemia
# HS 578T breast = test system: HS 578T breast
# SNB-19 CNS = test system: SNB-19 CNS
# MDA-N = test system: MDA-N
# HOP-92 NSCLC = test system: HOP-92 NSCLC
# OVCAR-3 ovarian = test system: OVCAR-3 ovarian
# COLO 205 colon = test system: COLO 205 colon
# 786-0 renal = test system: 786-0 renal
# A498 renal = test system: A498 renal
# UACC-62 melanoma = test system: UACC-62 melanoma
# SF-295 CNS = test system: SF-295 CNS
# HCT-116 colon = test system: HCT-116 colon
# DU-145 prostate = test system: DU-145 prostate
# NCI-H226 lung = test system: NCI-H226 lung
# NCI/ADR-RES ovarian = test system: NCI/ADR-RES ovarian
# OVCAR-5 ovarian = test system: OVCAR-5 ovarian
# SK-MEL-5 melanoma = test system: SK-MEL-5 melanoma
# SK-MEL-2 melanoma = test system: SK-MEL-2 melanoma
# U251 CNS = test system: U251 CNS
# RXF 393 renal = test system: RXF 393 renal
# IGROV1 ovarian = test system: IGROV1 ovarian
# UO-31 renal = test system: UO-31 renal
# HCT-15 colon = test system: HCT-15 colon
# SF-539 CNS = test system: SF-539 CNS
# HT29 colon = test system: HT29 colon
# MALME-3M melanoma = test system: MALME-3M melanoma
# NCI-H522 lung = test system: NCI-H522 lung
# NCI-H460 lung = test system: NCI-H460 lung
# LOX IMVI melanoma = test system: LOX IMVI melanoma
structure (smiles),measurement,setting,value
C1CSCCCSCCCSCCCSCCCSC1,TGI,BT-549 breast,> 88.5 µM
same,TGI,NCI-H23 lung,> 100 µM
same,TGI,SR leukemia,29.5 µM
same,TGI,CAKI-1 renal,48.8 µM
same,TGI,OVCAR-8 ovarian,> 100 µM
same,TGI,T-47D breast,> 88.6 µM
same,TGI,A549 NSCLC,> 100 µM
same,TGI,HCC-2998 colon,> 100 µM
same,TGI,UACC-257 melanoma,97.2 µM
same,TGI,RPMI-8226 leukemia,36.9 µM
same,TGI,MCF7 breast,> 76.7 µM
same,TGI,TK-10 renal,> 100 µM
same,TGI,HOP-62 NSCLC,> 100 µM
same,TGI,CCRF-CEM leukemia,32.4 µM
same,TGI,MDA-MB-435,> 100 µM
same,TGI,OVCAR-4 ovarian,> 100 µM
same,TGI,MOLT-4 leukemia,38.1 µM
same,TGI,ACHN renal,> 100 µM
same,TGI,SK-OV-3 ovarian,> 100 µM
same,TGI,PC-3 prostate,> 90.2 µM
same,TGI,MDA-MB-231 breast,> 88.4 µM
same,TGI,SN12C renal,> 100 µM
same,TGI,M14 melanoma,> 100 µM
same,TGI,KM12 colon,> 100 µM
same,TGI,SF-268 CNS,> 100 µM
same,TGI,SW-620 colon,> 100 µM
same,TGI,SNB-75 CNS,> 93.2 µM
same,TGI,EKVX NSCLC,> 100 µM
same,TGI,SK-MEL-28 melanoma,> 100 µM
same,TGI,K-562 leukemia,> 80 µM
same,TGI,HL-60(TB) leukemia,36.5 µM
same,TGI,HS 578T breast,> 100 µM
same,TGI,SNB-19 CNS,> 100 µM
same,TGI,MDA-N,> 100 µM
same,TGI,HOP-92 NSCLC,> 93.4 µM
same,TGI,OVCAR-3 ovarian,> 100 µM
same,TGI,COLO 205 colon,34.5 µM
same,TGI,786-0 renal,> 100 µM
same,TGI,A498 renal,> 78.1 µM
same,TGI,UACC-62 melanoma,> 100 µM
same,TGI,SF-295 CNS,> 100 µM
same,TGI,HCT-116 colon,> 100 µM
same,TGI,DU-145 prostate,> 100 µM
same,TGI,NCI-H226 lung,> 77.2 µM
same,TGI,NCI/ADR-RES ovarian,> 100 µM
same,TGI,OVCAR-5 ovarian,> 100 µM
same,TGI,SK-MEL-5 melanoma,28.3 µM
same,TGI,SK-MEL-2 melanoma,> 95.4 µM
same,TGI,U251 CNS,> 100 µM
same,TGI,RXF 393 renal,> 100 µM
same,TGI,IGROV1 ovarian,> 87.1 µM
same,TGI,UO-31 renal,> 100 µM
same,TGI,HCT-15 colon,> 100 µM
same,TGI,SF-539 CNS,> 100 µM
same,TGI,HT29 colon,> 63.2 µM
same,TGI,MALME-3M melanoma,> 100 µM
same,TGI,NCI-H522 lung,81.2 µM
same,TGI,NCI-H460 lung,> 51.4 µM
same,TGI,LOX IMVI melanoma,61.3 µM
C[N+](C)(CCNC(=O)c1cccc2cc3ccccc3nc12)Cc1ccc([N+](=O)[O-])cc1,TGI,BT-549 breast,> 100 µM
same,TGI,NCI-H23 lung,> 100 µM
same,TGI,SR leukemia,> 100 µM
same,TGI,CAKI-1 renal,> 100 µM
same,TGI,OVCAR-8 ovarian,> 100 µM
same,TGI,T-47D breast,> 100 µM
same,TGI,A549 NSCLC,> 100 µM
same,TGI,HCC-2998 colon,> 100 µM
same,TGI,UACC-257 melanoma,> 100 µM
same,TGI,RPMI-8226 leukemia,> 100 µM
same,TGI,MCF7 breast,> 100 µM
same,TGI,TK-10 renal,> 100 µM
same,TGI,HOP-62 NSCLC,> 100 µM
same,TGI,CCRF-CEM leukemia,> 100 µM
same,TGI,MDA-MB-435,> 100 µM
same,TGI,OVCAR-4 ovarian,> 100 µM
same,TGI,MOLT-4 leukemia,> 100 µM
same,TGI,ACHN renal,> 100 µM
same,TGI,SK-OV-3 ovarian,> 100 µM
same,TGI,PC-3 prostate,> 100 µM
same,TGI,MDA-MB-231 breast,> 100 µM
same,TGI,SN12C renal,> 100 µM
same,TGI,M14 melanoma,> 100 µM
same,TGI,KM12 colon,> 100 µM
same,TGI,SF-268 CNS,> 100 µM
same,TGI,SW-620 colon,> 100 µM
same,TGI,SNB-75 CNS,> 100 µM
same,TGI,EKVX NSCLC,> 100 µM
same,TGI,SK-MEL-28 melanoma,> 100 µM
same,TGI,K-562 leukemia,> 100 µM
same,TGI,HL-60(TB) leukemia,> 100 µM
same,TGI,HS 578T breast,> 100 µM
same,TGI,SNB-19 CNS,> 100 µM
same,TGI,MDA-N,> 100 µM
same,TGI,HOP-92 NSCLC,> 100 µM
same,TGI,OVCAR-3 ovarian,> 100 µM
same,TGI,COLO 205 colon,> 100 µM
same,TGI,786-0 renal,> 100 µM
same,TGI,A498 renal,> 100 µM
same,TGI,UACC-62 melanoma,> 100 µM
same,TGI,SF-295 CNS,> 100 µM
same,TGI,HCT-116 colon,> 100 µM
same,TGI,DU-145 prostate,> 100 µM
same,TGI,NCI-H226 lung,> 100 µM
same,TGI,NCI/ADR-RES ovarian,> 100 µM
same,TGI,OVCAR-5 ovarian,> 100 µM
same,TGI,SK-MEL-5 melanoma,> 100 µM
same,TGI,SK-MEL-2 melanoma,> 100 µM
same,TGI,U251 CNS,> 100 µM
same,TGI,RXF 393 renal,> 100 µM
same,TGI,IGROV1 ovarian,> 100 µM
same,TGI,UO-31 renal,> 100 µM
same,TGI,HCT-15 colon,> 100 µM
same,TGI,SF-539 CNS,> 100 µM
same,TGI,HT29 colon,> 100 µM
same,TGI,MALME-3M melanoma,> 100 µM
same,TGI,NCI-H522 lung,> 100 µM
same,TGI,NCI-H460 lung,> 100 µM
same,TGI,LOX IMVI melanoma,> 100 µM
